# Laboratory results: patent US5654116A, “Hologram” (priority 1993, dated 1997)
# Legend:
# [1] = Skin irritativeness, SPI value (skin irritation value of epoxy); conditions: for Toxicity Skin Irritativeness (SPI · %): ingredient of the adhesive of Example 5, Table 1
# [2] = Toxicity of adhesive ingredients, LD 50 (Table 1); type: in vivo; conditions: ingredient of the adhesive of Example 5, Table 1
Compound,Toxicity Skin Irritativeness (SPI · %) [1] [SPI · %],skin irritativeness ([1]; result in words),Toxicity LD 50 [2] [mg/kg]
"O=C1OC(=O)C2CC=CCC12 (stereo not shown) [alicyclic acid anhydride II, Tetrahydrophthalic anhydride]",3,low skin irritativeness,
hydrogenated bisphenol A type epoxy [alicyclic epoxy],3,,3900
